We go through 20 molecules from US5543312A, “Pastuerella haemolytica glycoprotease gene and the purified enzyme” (priority 1991, dated 1996).

In assay [1] the target is P. haemolytica A1 glycoprotease (Mannheimia haemolytica, UniProt P36175). Briefly: biochemical. The settings on record: for Inhibition of the glycoprotease by anions and acidic amino acids: millimolar concentrations; for Restoration of protease activity by addition of divalent metal ion: after EDTA treatment and dialysis of the enzyme; for Increase of activity by addition of divalent metal ion: native enzyme.
P. haemolytica A1 glycoprotease, sequence (P36175 whole entry): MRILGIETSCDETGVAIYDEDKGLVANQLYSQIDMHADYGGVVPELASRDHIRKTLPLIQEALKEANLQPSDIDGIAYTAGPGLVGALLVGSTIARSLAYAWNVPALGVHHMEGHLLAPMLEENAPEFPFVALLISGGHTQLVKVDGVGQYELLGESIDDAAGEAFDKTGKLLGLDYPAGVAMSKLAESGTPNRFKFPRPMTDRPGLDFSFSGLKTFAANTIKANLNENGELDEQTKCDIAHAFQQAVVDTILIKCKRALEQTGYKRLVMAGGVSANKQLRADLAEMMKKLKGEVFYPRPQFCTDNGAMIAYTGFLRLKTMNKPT

Assay [2] concerns the target P. haemolytica A1 protease (Mannheimia haemolytica, UniProt P36175). In kind it is biochemical. Particulars: SDS-PAGE and Coomassie blue staining.
Assay [3] concerns P. haemolytica glycoprotease. Briefly: Cleavage of cell surface antigens of surface-125I-iodinated KG1a cells, immunoprecipitation and SDS-PAGE. The format is cell-based. An excerpt: In our previous work, we have concentrated on the cleavage of human erythrocyte glycophorin A by the P. haemolytica glycoprotease Udoh et al. 1986. Univ. of Guelph; Abdullah et al. 1988. Proc. Canad. Fed. Biol. Socs.; Abdullah et al. 1990. Biochem. Soc. Trans. This substrate is well-characterized erythrocyte surface O-sialoglycoprotein and is readily available for biochemical analysis. However, it is clear that the physiological targets of this enzyme are not erthrocyte antigens but are probably O-sialoglycoproteins on the surfaces of leukocytes or endothelial cells. SDS-PAGE analysis of immunoprecipitations performed with specific monoclonal antibodies on lysates of surface-^125 I-iodinated KG1a cells, a primitive myeloid/T-lymphois stem cell line Koeffler et al. 1977. Science 200, have shown that the O-sialoglycoprotein cell surface antigens CD34 Civin et al. 1989. Leucocyte Typing IV, Oxford Univ. Press. CD43/leucosialin Killeen et al. 1987. EMBO J.; Pallant et al. 1989. PNAS, CD44/lyaluronic acid receptor Stamenkovic et al. 1989. Cell; Aruffo et al. 1990. Cell and CD45/leucocyte common antigen Thomas et al. 1989. Annu. REv. Immunol.; Pulido et al. 1989. J. Immunol. are all cleaved by the glycoprotease. Although the glycoprotease-sensitive structures contain some N-linked glycans they are all extensively glycosylated with O-linked carbohydrates. […]

Where [4] appears, read: pH 7.4, read-out: Activity (% of enzyme activity in the absence of any inhibitor).

P. haemolytica A1 protease, sequence (P36175 whole entry, looked up): as the sequence (P36175 whole entry) above

For `O=S(=O)(F)Cc1ccccc1` [phenylmethanesulfonyl-fluoride], the “Inhibition of glycoprotease by conventional protease inhibitors” value (shortened to “Inhibition of glycoprotease”) in assay [1] is “No inhibition”. In the case of `N[C@@H](CCC(=O)O)C(=O)O` [glutamate], in assay [1], the “Inhibition of the glycoprotease by anions and acidic amino acids” value is “Some inhibitions”. Turning to `CC(C)C[C@H](NP(=O)(O)O[C@H]1O[C@@H](C)[C@H](O)[C@@H](O)[C@H]1O)C(=O)N[C@@H](Cc1c[nH]c2ccccc12)C(=O)O` [Phosphoramidon, N-(β-L-rhamnopyranosyl-oxyhydroxyphosphinyl)-L-leucyl-L-tryptophan], the “Inhibition of the glycoprotease (in words)” value in assay [1] (concentration not given) was “without significant effect”. In addition, the inhibition at 900 µM in assay [1] (setting [4]) worked out at 95%. Turning to `[Mg+2]` [Mg^2+], in assay [1], the “Restoration of protease activity by addition of divalent metal ion” value (from here on “Restoration of protease activity”) is “failed to restore” and the “Increase of activity by addition of divalent metal ion” value (from here on “Increase of activity”) was “failed to increase”. As for bovine insulin chain A, the “Hydrolysis of protein by active enzyme fractions” value in assay [2] is listed as “did not hydrolyze”. Regarding `O=C1O[C@H]([C@@H](O)CO)C(O)=C1O` [Ascorbate], the inhibition at 11400 µM in assay [1] (setting [4]) was determined as 60%. For the molecule `O=C(O)c1cc[c]([Hg][Cl])cc1` [p-chloromercuribenzoate], in assay [1], the “Inhibition of glycoprotease” value is reported as “No inhibition”. As to `[Zn+2]` [Zn^2+], in assay [1], the “Restoration of protease activity” value is recorded as “failed to restore” and the “Increase of activity” value was “failed to increase”.

As for `O=C(O)c1cc[c]([Hg+])cc1.[OH-]` [p-hydroxymercuribenzoate], the “Inhibition of glycoprotease” value in assay [1] was “No inhibition”.

For insulin chain B, the “Hydrolysis of protein by active enzyme fractions” value in assay [2] is recorded as “did not hydrolyze”.

For the molecule `Cc1ccc(S(=O)(=O)NC(CCCCN)C(=O)CCl)cc1` (stereo not shown) [tosyl-lysl chloromethylketone], the “Inhibition of glycoprotease” value in assay [1] is recorded as “No inhibition”. Turning to “CD44/lyaluronic acid receptor: O-sialoglycoprotein cell surface antigen, hyaluronate receptor”, in assay [3], the “Cleavage of cell surface antigen by the glycoprotease” value is “cleaved”.

Take `N[C@@H](CC(=O)O)C(=O)O` [aspartate]: in assay [1], the “Inhibition of the glycoprotease by anions and acidic amino acids” value was “Some inhibitions”. cytochrome c: the “Hydrolysis of protein by active enzyme fractions” value in assay [2] is given as “did not hydrolyze”.

For the molecule `CCN1C(=O)C=CC1=O` [N-ethylmaleimide], in assay [1], the “Inhibition of glycoprotease” value is given as “No inhibition”.

In the case of `[Ca+2]` [Ca^2+], in assay [1], the “Restoration of protease activity” value is recorded as “failed to restore” and the “Increase of activity” value is on record as “failed to increase”. For the molecule `c1cnc2c(c1)ccc1cccnc12` [1,10-phenanthroline], in assay [1] (prolonged treatment (24 h)), the “Inhibition of the protease by prolonged treatment” value is recorded as “inhibited”. Turning to `Cc1ccc(S(=O)(=O)NC(Cc2ccccc2)C(=O)CCl)cc1` (stereo not shown) [tosylphenylalanyl chloromethylketone], the “Inhibition of glycoprotease” value in assay [1] is given as “No inhibition”. In the case of “CD71/transferrin receptor: N-linked glycoprotein which lacks O-sialo-residues”, the “Cleavage of cell surface antigen by the glycoprotease” value in assay [3] is on record as “resistant”. As to `[Fe+2]` [Fe^2+], in assay [1], the “Restoration of protease activity” value is “failed to restore” and the “Increase of activity” value was “failed to increase”.
